pIC50: −log10 of the molar value. Like-named read-outs stand apart in the source and are kept apart here. Positions of bridges follow the written chain, without caps; N, C: chain ends. Non-standard residues stand in square brackets, D forms with d. Residues, ends and D or L forms follow the SMILES beside them. ξ: configuration not given here. Phe(3,4,5-F3) = N[C@@H](Cc1cc(F)c(F)c(F)c1)C(=O)O; Phe(4-CONH2) = NC(=O)c1ccc(C[C@H](N)C(=O)O)cc1; d(cisHyp) = O=C(O)[C@H]1C[C@@H](O)CN1; Bta = N[C@@H](Cc1csc2ccccc12)C(=O)O; cisHyp = O=C(O)[C@@H]1C[C@H](O)CN1; Hyp = O=C(O)[C@@H]1C[C@@H](O)CN1; NMeF = CN[C@@H](Cc1ccccc1)C(=O)O; dNMeE = CN[C@H](CCC(=O)O)C(=O)O; dNMeNle = CCCC[C@@H](NC)C(=O)O; NMeNle = CCCC[C@H](NC)C(=O)O; NMeM = CN[C@@H](CCSC)C(=O)O; NMeA = CN[C@@H](C)C(=O)O; dDap = NC[C@@H](N)C(=O)O; Dab = NCC[C@H](N)C(=O)O; Dap = NC[C@H](N)C(=O)O; ξP = O=C(O)C1CCCN1; ξC = NC(CS)C(=O)O
What was measured:
Human PD-L1/PD-1 = molecular target: T1, Human PD-L1/PD-1 (Homo sapiens, UniProt Q9NZQ7); experiment: HTRF PD-1-Ig/PD-L1-His binding assay (human PD-L1); conditions: cluster symbol; read-out: HTRF IC50 cluster
T1 construct: made in house; host or cells: HEK293T
T1 sequence (Q9NZQ7 with tags, fused parts or gaps): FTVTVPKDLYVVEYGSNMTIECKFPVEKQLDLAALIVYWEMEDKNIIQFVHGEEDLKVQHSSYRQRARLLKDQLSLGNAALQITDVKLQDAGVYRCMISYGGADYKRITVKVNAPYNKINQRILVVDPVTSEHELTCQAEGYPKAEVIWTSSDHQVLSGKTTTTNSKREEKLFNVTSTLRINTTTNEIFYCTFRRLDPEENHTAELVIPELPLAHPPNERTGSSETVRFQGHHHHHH
In short: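 The time-resolved fluorescence signal comes from Eu-cryptate anti-Ig (1 nM) and APC anti-His (20 nM) antibodies bound to a PD-1-Ig/PD-L1-His complex. Both partners lack transmembrane regions.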

[1] = molecular target: T2, LK35.2-hPD-L1 cells / PE-labeled PD-1-Ig (Homo sapiens, UniProt Q9NZQ7); experiment: LK35.2-hPD-L1 cell binding high-content screening assay; format: cell-based; conditions: cluster symbol, read-out: CBA IC50 cluster
T2 construct: expressed in transfected cells; host or cells: LK35.2 mouse B cell line
T2 sequence (Q9NZQ7 19-290): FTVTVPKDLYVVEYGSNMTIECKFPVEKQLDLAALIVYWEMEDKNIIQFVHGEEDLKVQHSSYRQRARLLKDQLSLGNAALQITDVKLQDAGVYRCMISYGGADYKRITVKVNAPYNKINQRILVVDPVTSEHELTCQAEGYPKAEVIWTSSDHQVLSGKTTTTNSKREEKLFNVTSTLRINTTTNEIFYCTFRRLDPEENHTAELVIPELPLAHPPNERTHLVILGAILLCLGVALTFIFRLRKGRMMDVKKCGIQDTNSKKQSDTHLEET
In short: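 Fluorescent PD-1-Ig binding to PD-L1-expressing LK35.2 cells, imaged after washing. Conditions: 1 nM PE-PD-1-Ig, 37 °C, 1 h, RPMI with 10% fetal calf serum.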

[2] = cell binding assay, cell line not given
[3] = cell line of CBA not given (LK35.2-hPD-L1 or 293T-hPD-L1)

Row | SMILES | pIC50 (Human PD-L1/PD-1) | pIC50 [1, 2] | pIC50 [1, 3]
1 | CCCC[C@H]1C(=O)N(C)[C@@H](CCCC)C(=O)N[C@@H](CO)C(=O)NC(C(=O)NCC(N)=O)CSCC(=O)N[C@@H](Cc2ccc(O)cc2)C(=O)N(C)[C@@H](C)C(=O)N[C@@H](CC(N)=O)C(=O)N2CCC[C@H]2C(=O)N[C@@H](Cc2cnc[nH]2)C(=O)N[C@@H](CC(C)C)C(=O)N2C[C@H](O)C[C@H]2C(=O)N[C@@H](Cc2c[nH]c3ccccc23)C(=O)N[C@@H](CO)C(=O)N[C@@H](Cc2csc3ccccc23)C(=O)N1C (stereo partly shown) [Example 9028] ({CH2CO}-Y[NMeA]NPHL[Hyp]WS[Bta][NMeNle][NMeNle]S[ξC]G-NH2; thioether N-14) | 8.17 to 9.41 | 8.33 to 9.80 | 
2 | CCCC[C@H]1C(=O)N(C)CC(=O)N[C@@H](CC(=O)O)C(=O)N[C@@H](C(C)C)C(=O)N(C)[C@@H](Cc2ccccc2)C(=O)N[C@@H](Cc2ccc(O)cc2)C(=O)N(C)CC(=O)N[C@@H](Cc2c[nH]c3ccccc23)C(=O)N[C@@H](Cc2ccc(O)cc2)C(=O)N[C@@H](CCCNC(=N)N)C(=O)N[C@H](C(=O)NCC(N)=O)CSCC(=O)N[C@@H](Cc2ccccc2)C(=O)N(C)[C@@H](Cc2ccccc2)C(=O)N1C [Example 3508] (HELM PEPTIDE1{[O=C(C[*:3])[*:2]].F.[meF].[CCCC[C@@H](C(=O)[*:2])N(C)[*:1]].[Sar].D.V.[meF].Y.[Sar].W.Y.R.C.G.[am]}$PEPTIDE1,PEPTIDE1,1:R3-14:R3$$$V2.0) | 8.17 to 9.41 | 7.14 to 8.32 | 
3 | CCCC[C@H]1C(=O)N2C[C@H](O)C[C@@H]2C(=O)N[C@@H](CC(N)=O)C(=O)N[C@@H](C(C)C)C(=O)N(C)[C@@H](Cc2ccccc2)C(=O)N[C@@H](Cc2ccc(O)cc2)C(=O)N(C)[C@H](CCC(=O)O)C(=O)N[C@@H](Cc2c[nH]c3ccccc23)C(=O)N[C@@H](Cc2ccc(O)cc2)C(=O)N[C@@H](CCCCN)C(=O)N[C@H](C(=O)NCC(N)=O)CSCC(=O)N[C@@H](Cc2cc(F)c(F)c(F)c2)C(=O)N(C)[C@@H](Cc2ccccc2)C(=O)N1C [Example 3596] ({CH2CO}-[Phe(3,4,5-F3)][NMeF][NMeNle][d(cisHyp)]NV[NMeF]Y[dNMeE]WYKCG-NH2; thioether N-13) | 7.52 to 8.17 | 8.33 to 9.80 | 
4 | CCCC[C@H]1C(=O)N(C)[C@@H](CCCC)C(=O)N[C@@H](CCCNC(=N)N)C(=O)N[C@H](C(=O)NCC(N)=O)CSCC(=O)N[C@@H](Cc2ccc(O)cc2)C(=O)N(C)[C@@H](C)C(=O)N[C@@H](CC(N)=O)C(=O)N2CCC[C@H]2C(=O)N[C@@H](Cc2cnc[nH]2)C(=O)N[C@@H](CCC(=O)O)C(=O)N2C[C@H](O)C[C@H]2C(=O)N[C@@H](Cc2c[nH]c3ccccc23)C(=O)N[C@@H](CO)C(=O)N[C@@H](Cc2c[nH]c3ccccc23)C(=O)N1C [Example 1159] ({CH2CO}-Y[NMeA]NPHE[Hyp]WSW[NMeNle][NMeNle]RCG-NH2; thioether N-14) | 7.52 to 8.17 |  | 8.33 to 9.80
5 | CCCC[C@H]1C(=O)N(C)[C@@H](CCCC)C(=O)N[C@@H](CO)C(=O)NC(C(=O)NCC(N)=O)CSCC(=O)N[C@@H](Cc2ccc(O)cc2)C(=O)N(C)[C@@H](C)C(=O)N[C@@H](CC(N)=O)C(=O)N2CCC[C@H]2C(=O)N[C@@H](Cc2cnc[nH]2)C(=O)N[C@@H](CC(C)C)C(=O)N2CCC[C@H]2C(=O)N[C@@H](Cc2c[nH]c3ccccc23)C(=O)N[C@@H](CO)C(=O)N[C@@H](Cc2csc3ccccc23)C(=O)N1C (stereo partly shown) [Example 9027] ({CH2CO}-Y[NMeA]NPHLPWS[Bta][NMeNle][NMeNle]S[ξC]G-NH2; thioether N-14) | 8.17 to 9.41 | 8.33 to 9.80 | 
6 | CCCC[C@H]1C(=O)N(C)[C@@H](CCCC)C(=O)N[C@@H](CCCNC(=N)N)C(=O)N[C@H](C(=O)NCC(N)=O)CSCC(=O)N[C@@H](Cc2ccc(O)cc2)C(=O)N(C)[C@@H](C)C(=O)N[C@@H](CC(=O)O)C(=O)N2CCC[C@H]2C(=O)N[C@@H](Cc2cnc[nH]2)C(=O)N[C@@H](CC(C)C)C(=O)N2CCC[C@H]2C(=O)N[C@@H](Cc2c[nH]c3ccccc23)C(=O)N[C@@H](CO)C(=O)N[C@@H](Cc2c[nH]c3ccccc23)C(=O)N1C [Example 1122] ({CH2CO}-Y[NMeA]DPHLPWSW[NMeNle][NMeNle]RCG-NH2; thioether N-14) | 7.52 to 8.17 |  | 8.33 to 9.80
7 | CCCC[C@H]1C(=O)N(C)CC(=O)N[C@@H](CC(=O)O)C(=O)N[C@@H](C(C)C)C(=O)N(C)[C@@H](Cc2ccccc2)C(=O)N[C@@H](Cc2ccc(O)cc2)C(=O)N(C)CC(=O)N[C@@H](Cc2c[nH]c3ccccc23)C(=O)N[C@@H](Cc2ccc(O)cc2)C(=O)N[C@@H](Cc2ccccc2)C(=O)N[C@H](C(=O)NCC(N)=O)CSCC(=O)N[C@@H](Cc2ccccc2)C(=O)N(C)[C@@H](Cc2ccccc2)C(=O)N1C [Example 3537] (HELM PEPTIDE1{[O=C(C[*:3])[*:2]].F.[meF].[CCCC[C@@H](C(=O)[*:2])N(C)[*:1]].[Sar].D.V.[meF].Y.[Sar].W.Y.F.C.G.[am]}$PEPTIDE1,PEPTIDE1,1:R3-14:R3$$$V2.0) | 7.52 to 8.17 | 7.14 to 8.32 | 
8 | CCCC[C@H]1C(=O)N(C)[C@@H](CCSC)C(=O)N[C@@H](CCCNC(=N)N)C(=O)NC(C(=O)NCC(N)=O)CSCC(=O)N[C@@H](Cc2ccc(O)cc2)C(=O)N(C)[C@@H](C)C(=O)N[C@@H](CC(N)=O)C(=O)N2CCC[C@H]2C(=O)N[C@@H](CN)C(=O)N[C@@H](CC(C)C)C(=O)N2CCC[C@H]2C(=O)N[C@@H](Cc2c[nH]c3ccccc23)C(=O)N[C@@H](CO)C(=O)N[C@@H](Cc2c[nH]c3ccccc23)C(=O)N1C (stereo partly shown) [Example 9081] ({CH2CO}-Y[NMeA]NP[Dap]LPWSW[NMeNle][NMeM]R[ξC]G-NH2; thioether N-14) | 8.17 to 9.41 | 8.33 to 9.80 | 
9 | CCCC[C@@H]1C(=O)N(C)[C@H](CCCC)C(=O)N[C@@H](C)C(=O)N[C@@H](C(=O)NCC(N)=O)CSCC(=O)N[C@@H](Cc2ccc(O)cc2)C(=O)N2CCCC2C(=O)N[C@H](CC(=O)O)C(=O)N2CCC[C@H]2C(=O)N[C@H](CN)C(=O)N[C@@H](CCC(N)=O)C(=O)N2CCCC2C(=O)N[C@H](Cc2c[nH]c3ccccc23)C(=O)N[C@@H](CCN)C(=O)N[C@@H](Cc2c[nH]c3ccccc23)C(=O)N1C (stereo partly shown) [Example 1208] ({CH2CO}-Y[ξP][dD]P[dDap]Q[ξP][dW][Dab]W[dNMeNle][dNMeNle]A[dC]G-NH2; thioether N-14) | 8.17 to 9.41 |  | 7.14 to 8.32
10 | CCCC[C@H]1C(=O)N(C)[C@@H](CCCC)C(=O)N[C@@H](CCCNC(=N)N)C(=O)N[C@H](C(=O)NCC(N)=O)CSCC(=O)N[C@@H](Cc2ccc(C(N)=O)cc2)C(=O)N(C)[C@@H](C)C(=O)N[C@@H](CC(N)=O)C(=O)N2CCC[C@H]2C(=O)N[C@@H](CN)C(=O)N[C@@H](CC(C)C)C(=O)N2C[C@H](O)C[C@H]2C(=O)N[C@@H](Cc2c[nH]c3ccccc23)C(=O)N[C@@H](CO)C(=O)N[C@@H](Cc2c[nH]c3ccccc23)C(=O)N1C [Example 7041] ({CH2CO}-[Phe(4-CONH2)][NMeA]NP[Dap]L[Hyp]WSW[NMeNle][NMeNle]RCG-NH2; thioether N-14) | 7.52 to 8.17 | 7.14 to 8.32 | 
11 | CCCC[C@H]1C(=O)N(C)[C@@H](CCCC)C(=O)N[C@@H](CCCNC(=N)N)C(=O)N[C@H](C(=O)NCC(N)=O)CSCC(=O)N[C@@H](Cc2ccc(O)cc2)C(=O)N(C)[C@@H](C)C(=O)N[C@@H](CN)C(=O)N2CCC[C@H]2C(=O)N[C@@H](C)C(=O)N[C@@H](CC(C)C)C(=O)N2C[C@@H](O)C[C@H]2C(=O)N[C@@H](Cc2c[nH]c3ccccc23)C(=O)N[C@@H](CO)C(=O)N[C@@H](Cc2c[nH]c3ccccc23)C(=O)N1C [Example 1143] ({CH2CO}-Y[NMeA][Dap]PAL[cisHyp]WSW[NMeNle][NMeNle]RCG-NH2; thioether N-14) | < 7.52 |  | < 7.13

Reference: US9850283B2, “Macrocyclic inhibitors of the PD-1/PD-L1 and CD80(B7-1)/PD-L1 protein/protein interactions” (BRISTOL-MYERS SQUIBB COMPANY, priority 2013, dated 2017)
